Experimental data from the supplement of paper PMC11208160.

Assay: recombinant UMI read abundance after kanamycin selection (control-corrected) (log10(CPM+1)); higher = more efficient recombination; extreme values may be limits of the assay; sequences stand for … in AGTGCAGAGAAAATCGGCCAGTTTTCTCTGCCTGCAGTCCGCATGCCGTGGGACCCCTTGGGTTCTAACCTGTTGCCTAGATTTATGCAGCGGACTGCCTTTCTCCCAAAGTGATAAACCGG…AGGTTGGTTTCACT; site = the 11-nt donor
Method in brief: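 In a pooled Escherichia coli screen for the IS621 bridge recombinase, donor and donor-binding-loop pairs were each placed with a 12-nt UMI on a plasmid bearing a promoterless kanamycin gene. This library was co-electroporated with a target plasmid encoding a fixed target and T7-inducible recombinase, and cells were plated either on IPTG (0.07 mM) plus kanamycin or without selection, in two replicates each. Recombinant UMIs were PCR-amplified across the donor–target junction and sequenced, and counts were converted to CPM, averaged over replicates, scaled by control-derived factors and reported as log10(CPM+1).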
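Note: IS621 bridge recombinase in Escherichia coli cells against a fixed T5 target plasmid.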

Sequence | recombinant UMI read abundance (log10)
ATCCGAGCATGGACCGGTTTTCCCGGTAATCCGTATTTGAG (site ATCCGAGCTCT) | 0.924
ATCCGAGCATGGACCGGTTTTCCCGGTAATCCGTATTTGAG (site ATCCTAGCTCT) | 0.0162
ATCCGATCATGGACCGGTTTTCCCGGTAATCCGTATTTGGT (site ATCCGATCTAC) | 0.721
ATCCTATCATGGACCGGTTTTCCCGGTAATCCGTATTTGAC (site ATCCTATCTGT) | 1.58
ATCCTGGCATGGACCGGTTTTCCCGGTAATCCGTATTTGAC (site ATCCTGGCTGT) | 0
ATCGATACATGGACCGGTTTTCCCGGTAATCCGTATTTGAC (site ATCAATACTGT) | 1.49
ATCGATACATGGACCGGTTTTCCCGGTAATCCGTATTTGAC (site ATCCATACTGT) | 0
ATCGATACATGGACCGGTTTTCCCGGTAATCCGTATTTGAC (site ATCGATACTGT) | 2.32
ATCGATACATGGACCGGTTTTCCCGGTAATCCGTATTTGAC (site ATCTATACTGT) | 0.652
ATCGTCACATGGACCGGTTTTCCCGGTAATCCGTATTTGCA (site ATCGTCACTTG) | 2.56
ATCGTTCCATGGACCGGTTTTCCCGGTAATCCGTATTTGTT (site ATCGTTCCTAA) | 0.568
ATCTAATCATGGACCGGTTTTCCCGGTAATCCGTATTTGGA (site ATCTAATCTTC) | 2.05
ATCTACACATGGACCGGTTTTCCCGGTAATCCGTATTTGCT (site ATCTACACTAG) | 2.26
ATCTACACATGGACCGGTTTTCCCGGTAATCCGTATTTGCT (site CTCTACACTAG) | 1.56
ATCTACACATGGACCGGTTTTCCCGGTAATCCGTATTTGCT (site GTCTACACTAG) | 1.41
ATCTACACATGGACCGGTTTTCCCGGTAATCCGTATTTGCT (site TTCTACACTAG) | 2.05
ATCTAGACATGGACCGGTTTTCCCGGTAATCCGTATTTGAC (site ATCTAAACTGT) | 2.21
ATCTAGACATGGACCGGTTTTCCCGGTAATCCGTATTTGAC (site ATCTACACTGT) | 0
ATCTAGACATGGACCGGTTTTCCCGGTAATCCGTATTTGAC (site ATCTAGACTGT) | 2.68
ATCTAGACATGGACCGGTTTTCCCGGTAATCCGTATTTGAC (site ATCTATACTGT) | 0
ATCTATCCATGGACCGGTTTTCCCGGTAATCCGTATTTGAC (site ATCTATACTGT) | 0
ATCTATCCATGGACCGGTTTTCCCGGTAATCCGTATTTGAC (site ATCTATCCTGT) | 0.991
ATCTATCCATGGACCGGTTTTCCCGGTAATCCGTATTTGAC (site ATCTATGCTGT) | 0
ATCTATCCATGGACCGGTTTTCCCGGTAATCCGTATTTGAC (site ATCTATTCTGT) | 0
ATCTATTCATGGACCGGTTTTCCCGGTAATCCGTATTTGAC (site ATCTATACTGT) | 0.00799
ATCTATTCATGGACCGGTTTTCCCGGTAATCCGTATTTGAC (site ATCTATCCTGT) | 1.89

Sequence | recombinant UMI read abundance (log10)
ATCTATTCATGGACCGGTTTTCCCGGTAATCCGTATTTGAC (site ATCTATGCTGT) | 0
ATCTATTCATGGACCGGTTTTCCCGGTAATCCGTATTTGAC (site ATCTATTCTGT) | 1.51
ATGAAGGCATGGACCGGTTTTCCCGGTAATCCGTATTTGGC (site ATGAAGGCTGC) | 2.32
ATGAAGGCATGGACCGGTTTTCCCGGTAATCCGTATTTGGC (site ATGCAGGCTGC) | 1.72
ATGAAGGCATGGACCGGTTTTCCCGGTAATCCGTATTTGGC (site ATGGAGGCTGC) | 2.09
ATGAAGGCATGGACCGGTTTTCCCGGTAATCCGTATTTGGC (site ATGTAGGCTGC) | 2.08
ATGACGACATGGACCGGTTTTCCCGGTAATCCGTATTTGCA (site AGGAAGACTTG) | 0
ATGACGACATGGACCGGTTTTCCCGGTAATCCGTATTTGCA (site ATGACGACTTG) | 1.81
ATGACTACATGGACCGGTTTTCCCGGTAATCCGTATTTGAC (site AAGACTACTGT) | 0.508
ATGACTACATGGACCGGTTTTCCCGGTAATCCGTATTTGAC (site ACGACTACTGT) | 1.92
ATGACTACATGGACCGGTTTTCCCGGTAATCCGTATTTGAC (site AGGACTACTGT) | 0.907
ATGACTACATGGACCGGTTTTCCCGGTAATCCGTATTTGAC (site ATGACTACTGT) | 2.54
ATGACTGCATGGACCGGTTTTCCCGGTAATCCGTATTTGTC (site ATGACTGCTGA) | 1.47
ATGAGCACATGGACCGGTTTTCCCGGTAATCCGTATTTGGA (site ATGAGCACTTC) | 0.82
ATGAGGCCATGGACCGGTTTTCCCGGTAATCCGTATTTGAC (site ATAAGGCCTGT) | 0
ATGAGGCCATGGACCGGTTTTCCCGGTAATCCGTATTTGAC (site ATCAGGCCTGT) | 0
ATGAGGCCATGGACCGGTTTTCCCGGTAATCCGTATTTGAC (site ATGAGGCCTGT) | 0.716
ATGAGGCCATGGACCGGTTTTCCCGGTAATCCGTATTTGAC (site ATTAGGCCTGT) | 0
ATGATGGCATGGACCGGTTTTCCCGGTAATCCGTATTTGAC (site ATGATGGCTGT) | 2.7
ATGCAGGCATGGACCGGTTTTCCCGGTAATCCGTATTTGGC (site ATGAAGGCTGC) | 0
ATGCAGGCATGGACCGGTTTTCCCGGTAATCCGTATTTGGC (site ATGCAGGCTGC) | 2.77
ATGCAGGCATGGACCGGTTTTCCCGGTAATCCGTATTTGGC (site ATGGAGGCTGC) | 0
ATGCAGGCATGGACCGGTTTTCCCGGTAATCCGTATTTGGC (site ATGTAGGCTGC) | 0.922
ATGCCACCATGGACCGGTTTTCCCGGTAATCCGTATTTGTA (site ATGCCACCTTA) | 0
ATGCTGACATGGACCGGTTTTCCCGGTAATCCGTATTTGGT (site ATGCTGACTAC) | 1.32
ATGCTTCCATGGACCGGTTTTCCCGGTAATCCGTATTTGCA (site ATGCTTCCTTG) | 1.47
